Reference: article PMC7802075 (ACS Infectious Diseases, 2020)
Where a name gives a salt, the structure may show the parent alone. Where a SMILES comes first, the peptide text is derived from it.

molecular target: T1, LmjIPCS (inositol phosphorylceramide synthase from L. major) (Leishmania major, UniProt E9AFX2); assay: biochemical; type: biochemical; design: inhibition: dose or concentration left out as unconfirmed; details: not given
T1 sequence (E9AFX2 1-338): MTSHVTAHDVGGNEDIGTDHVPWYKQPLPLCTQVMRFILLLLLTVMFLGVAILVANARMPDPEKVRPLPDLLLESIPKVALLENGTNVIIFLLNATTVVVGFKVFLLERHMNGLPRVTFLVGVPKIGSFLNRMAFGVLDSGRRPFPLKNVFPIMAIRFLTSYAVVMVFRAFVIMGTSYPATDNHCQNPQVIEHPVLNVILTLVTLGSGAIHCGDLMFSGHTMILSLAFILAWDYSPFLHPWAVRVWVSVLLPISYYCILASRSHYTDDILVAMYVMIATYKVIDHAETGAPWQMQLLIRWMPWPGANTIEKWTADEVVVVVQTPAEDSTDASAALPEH

Compound | 20mM inhibition LmjIPCS [%]
O=[N+]([O-])c1cc(O)c(O)c([N+](=O)[O-])c1 [3,5-DINITROCATECHOL] | 8
CCCCC(=O)O[C@H]1CC[C@H]2[C@@H]3CCc4cc(O)ccc4[C@H]3CC[C@]12C [ESTRADIOL VALERATE] | 66
COc1cccc(OC)c1OCCNCC1COc2ccccc2O1 (stereo not shown) | -4.65
N[C@H](C(=O)O)[C@@H]1CC(Cl)=NO1 [ACIVICIN] | 39
1R,2S-PHENYLPROPYLAMINE | -2.19
CC1=C(C(=O)O)N2C(=O)[C@@H](NC(=O)[C@H](N)c3ccc(O)cc3)[C@H]2SC1 [CEFADROXIL] | 37
Cc1cc(=O)n(-c2ccccc2)n1C [ANTIPYRINE] | 36
CC(=O)OCC(=O)[C@@]1(O)CC[C@H]2[C@@H]3CCC4=CC(=O)CC[C@]4(C)[C@H]3C(=O)C[C@@]21C [CORTISONE ACETATE] | 62
CCC1(c2ccc(N)cc2)CCC(=O)NC1=O (stereo not shown) [AMINOGLUTETHIMIDE] | 56
CC(=O)[C@H]1CC[C@H]2[C@@H]3CCC4=CC(=O)CC[C@]4(C)[C@H]3CC[C@]12C [PROGESTERONE] | 65
COc1ccc2cc1Oc1ccc(cc1)C[C@H]1c3cc(c(OC)cc3CCN1C)Oc1c(OC)c(OC)cc3c1[C@H](C2)N(C)CC3 [TETRANDRINE] | 65
CCOC(=O)OC(C)OC(=O)[C@@H]1N2C(=O)[C@@H](NC(=O)[C@H](N)c3ccccc3)[C@H]2SC1(C)C (stereo partly shown) [BACAMPICILLIN] | 48
O=C(/C=C/c1ccc(O)c(O)c1)OCCc1ccccc1 [PHENETHYL CAFFEATE (CAPE)] | 39
COc1cc(NC(C)CCCN)c2ncccc2c1 (stereo not shown) [PRIMAQUINE] | 69
CC[C@H]1OC(=O)[C@H](C)[C@@H](O[C@H]2C[C@@](C)(OC)[C@@H](O)[C@H](C)O2)[C@H](C)[C@@H](O[C@@H]2O[C@H](C)C[C@H](N(C)C)[C@H]2O)[C@](C)(O)C[C@@H](C)[C@@H]2N[C@@H](COCCOC)O[C@H]([C@H]2C)[C@]1(C)O [DIRITHROMYCIN] | 47
CC(=O)OCC1=C(C(=O)O)N2C(=O)[C@@H](NC(=O)Cc3cccs3)[C@H]2SC1 [CEPHALOTHIN] | 55

same assay, conditions: NINDS set screen, compound at 20mM (so in the source)

Compound | 20mM inhibition LmjIPCS [%]
COc1ccc2cc([C@H](C)C(=O)O)ccc2c1 [NAPROXEN(+)] | 18

same assay, conditions: NINDS set screen, single concentration printed as 20mM

Compound | 20mM inhibition LmjIPCS [%]
C#CCCCCCCCCCCCC(O)CC(O)CO (stereo not shown) [AVOCADYNE] | 65
BACITRACIN | 44
CC(=O)NO [ACETOHYDROXAMIC ACID] | 34
CCOC(=O)c1ccc(N)cc1 [BENZOCAINE] | 46

same assay, conditions: NINDS set screen; read-out: inhibition LmjIPCS

Compound | inhibition [%]
COc1c(OC)c2occc2c2oc(=O)ccc12 [PIMPINELLIN] | 18
Clc1ccc(C(OCCN2CCCCC2)c2ccccc2)cc1 (stereo not shown) [CLOPERASTINE] | 13
O=C1CCc2cc(OCCCCc3nnnn3C3CCCCC3)ccc2N1 [CILOSTAZOL] | 14
O=C(CCCN1CCC2(CC1)C(=O)NCN2c1ccccc1)c1ccc(F)cc1 [SPIPERONE] | -6
CCCCNc1ccc(C(=O)OCCN(C)C)cc1 [TETRACAINE] | 18
CC(=O)S[C@@H]1CC2=CC(=O)CC[C@]2(C)[C@H]2CC[C@@]3(C)[C@@H](CC[C@@]34CCC(=O)O4)[C@H]12 [SPIRONOLACTONE] | -1.06
CCCCCCCCCCCCCCCC(=O)OC/C=C(C)/C=C/C=C(C)/C=C/C1=C(C)CCCC1(C)C [RETINYL PALMITATE] | 18

same assay, conditions: read-out: 20mM inhibition LmjIPCS

Compound | inhibition at 20000 µM [%]
CC[N+](C)(C)c1cccc(O)c1 [EDROPHONIUM] | 12
O=C(Cc1cccs1)N[C@@H]1C(=O)N2C(C(=O)[O-])=C(C[n+]3ccccc3)CS[C@H]12 [CEPHALORIDINE] | 22
CCCC(=O)Nc1ncnc2c1ncn2[C@@H]1O[C@@H]2COP(=O)(O)O[C@H]2[C@H]1OC(=O)CCC [BUCLADESINE] | -1.88
CNC(C)(C)Cc1ccccc1 [MEPHENTERMINE] | 22
O=c1c(O)c(-c2ccc(O)cc2O)oc2cc(O)cc(O)c12 [MORIN] | 4
C[C@]12CCC(=O)C=C1C=C[C@@H]1[C@@H]2CC[C@@]2(C)[C@H]1CC[C@@]21CCC(=O)O1 [CANRENONE] | 12
NC[C@H](O)c1ccc(O)c(O)c1 [NOREPINEPHRINE] | 12
COc1ccc(Cc2nccc3cc(OC)c(OC)cc23)cc1OC [PAPAVERINE] | 21
CC(C)=CCC1=C(O)C(=O)c2ccccc2C1=O [LAPACHOL] | 5.55
CCOC(=O)[N-]c1cn(N2CCOCC2)n[o+]1 [MOLSIDOMINE] | -0.951
COc1ccc(C(=O)CC(=O)c2ccc(C(C)(C)C)cc2)cc1 [AVOBENZONE] | 0.941
CCc1cc(C(N)=S)ccn1 [ETHIONAMIDE] | -5.39
O=C1C=CC(=C(c2ccc(O)cc2)c2ccc(O)cc2)C=C1 [ROSOLIC ACID] | -11
CN1[C@@H]2CC[C@H]1C[C@@H](OC(=O)[C@H](CO)c1ccccc1)C2 [HYOSCYAMINE] | 4
c1ccc2c(c1)[nH]c1cnccc12 [NORHARMAN] | 17
COc1ccc2c(c1OC)C(=O)OC2[C@H]1c2cc3c(cc2CCN1C)OCO3 (stereo in doubt) [1R,9S-HYDRASTINE] | 10
CC(COc1ccccc1)N(CCCl)Cc1ccccc1 (stereo not shown) [PHENOXYBENZAMINE] | 31

Compound | inhibition at 20000 µM [%]
C=C1c2cccc(O)c2C(=O)C2=C(O)[C@]3(O)C(=O)C(C(N)=O)=C(O)[C@@H](N(C)C)[C@@H]3[C@@H](O)[C@H]12 [METHACYCLINE] | 33
NCCCC[C@H](N)C(=O)N[C@@H](Cc1ccccc1)C(=O)N[C@@H](Cc1ccc(O)cc1)C(=O)O [LYSYLPHENYLALANYLTYROSINE] (H-Lys-Phe-Tyr-OH) | 4.61
COc1c(N2C[C@@H]3CCCN[C@@H]3C2)c(F)cc2c(=O)c(C(=O)O)cn(C3CC3)c12 [MOXIFLOXACIN] | 16
Cn1cnc2c1c(=O)[nH]c(=O)n2C [THEOBROMINE] | 24
C[C@H](N)[C@H](O)c1ccc(O)c(O)c1 [LEVONORDEFRIN] | 16
CN(C)c1nc(N(C)C)nc(N(C)C)n1 [ALTRETAMINE] | 4
CO[C@H]1/C=C/O[C@@]2(C)Oc3c(C)c(O)c4c(O)c(c(/C=N/N5CCN(C)CC5)c(O)c4c3C2=O)NC(=O)/C(C)=C\C=C\[C@H](C)[C@H](O)[C@@H](C)[C@@H](O)[C@@H](C)[C@H](OC(C)=O)[C@@H]1C [RIFAMPIN] | 27
C=C(C)[C@H]1CN[C@H](C(=O)O)[C@H]1CC(=O)O [KAINIC ACID] | 14
CCC[C@@H]1C[C@@H](C(=O)N[C@@H]([C@H]2O[C@H](SC)[C@H](O)[C@@H](O)[C@H]2O)[C@@H](C)O)N(C)C1 [LINCOMYCIN] | 8.53
COc1ccccc1OCC(O)COC(N)=O (stereo not shown) [METHOCARBAMOL] | 13
CCS(=O)(=O)CCn1c([N+](=O)[O-])cnc1C [TINIDAZOLE] | 15
C[N+](C)(C)CCCCCC[N+](C)(C)C [HEXAMETHONIUM] | -4
CN(C)C(=O)Oc1cccc([N+](C)(C)C)c1 [NEOSTIGMINE BROMIDE] | 20
CN(C)C(=O)Oc1ccc[n+](C)c1 [PYRIDOSTIGMINE BROMIDE] | -5.55
COCCc1ccc(OCC(O)CNC(C)C)cc1 (stereo not shown) [METOPROLOL] | 21
COc1cnc(NS(=O)(=O)c2ccc(N)cc2)nc1 | 21

same assay, conditions: read-out: inhibition LmjIPCS

Compound | inhibition [%]
CC[N+](C)(C)Cc1ccccc1Br [BRETYLIUM] | 14
C[N+](C)(C)CC(O)CC(=O)[O-] (stereo not shown) [CARNITINE] | 15
Cc1noc(NS(=O)(=O)c2ccc(N)cc2)c1C [SULFISOXAZOLE] | 20
c1coc(CNc2ncnc3[nH]cnc23)c1 [KINETIN] | 16
CC(C)=CCC/C(C)=C\CO [NEROL] | 33
Cc1c(N(C)C)c(=O)n(-c2ccccc2)n1C [AMINOPHENAZONE] | -19
CC(NC(C)(C)C)C(=O)c1cccc(Cl)c1 (stereo not shown) [BUPROPION] | 29
CC1=C(CC(=O)O)c2cc(F)ccc2/C1=C\c1ccc([S+](C)[O-])cc1 (stereo not shown) | 12
COC(=O)[C@@H]1[C@H]2C[C@H]3c4[nH]c5ccccc5c4CCN3C[C@@H]2CC[C@@H]1O [YOHIMBINE HYDROCHLORIDE] | 23
O=C(O)Cc1ccccc1Nc1c(Cl)cccc1Cl [DICLOFENAC] | -6.5
O=C1CC[C@@]2(O)[C@H]3Cc4ccc(O)c5c4[C@@]2(CCN3CC2CC2)[C@H]1O5 [NALTREXONE] | 8

same assay, conditions: screening of NINDS set, sheet Screen 1; read-out: inhibition LmjIPCS

Compound | inhibition [%]
O=C(O)c1cc(O)c2ccc(Cl)cc2n1 [7-CHLOROKYNURENIC ACID] | 9
C=N[C@@H](C(=O)N[C@@H]1C(=O)N2[C@@H]1SC(C)(C)[C@@H]2C(=O)O)c1ccccc1 [METAMPICILLIN] | 10
CN(CCOc1ccc(CC2SC(=O)NC2=O)cc1)c1ccccn1 (stereo not shown) [ROSIGLITAZONE] | 2.64
C[N+]1(CCCCC[N+]2(C)CCCC2)CCCC1 [PENTOLINIUM] | 11
CC(C)(C)NCC(O)c1cc(O)cc(O)c1 (stereo not shown) [TERBUTALINE] | 9

same assay, conditions: single concentration 20mM as printed; screening of NINDS set, sheet Screen 1

Compound | 20mM inhibition LmjIPCS [%]
C[C@H]1O[C@@H](n2cc(F)c(=O)[nH]c2=O)[C@H](O)[C@@H]1O [5-FLUORO-5'-DEOXYURIDINE] | 3.33
NC(Cc1ccc(Cl)cc1)C(=O)O (stereo not shown) [p-CHLOROPHENYLALANINE] | 4
